{"source": "patent US20230079439A1", "about": "“Compositions and Methods for Enhancing Beta Cell Maturation, Health and Function” (THE REGENTS OF THE UNIVERSITY OF CALIFORNIA, priority 2016, published 2023)", "format_in_all_cases": "cell-based, rat", "key": {"INS-1E cells [1]": {"system": "INS-1E cells", "assay": "MTT cell viability under glucose oxidase-induced oxidative stress", "description": "(§1) FIG. 7, comprising FIG. 7A through FIG. 7G, depicts the evaluation of the biological activity of HSA-28P in INS-1E cells. FIG. 7A depicts dose-response analysis of the effect of HSA-28P on the rate of insulin secretion in INS-1E cells. The INS-1E cells were grown and trypsinized as described in Methods. Subsequently, cells were mixed with the indicated concentrations of HSA-28P (red columns), non-relevant peptide nanoparticles (NRPNP, green columns), and naked nanoparticles (NP, blue columns) and were seeded in 12-well plates. After 24 h the cells were taken to a GSIS in the presence of 2.5 mM (weak color bars) or 16.7 mM (strong color bars) glucose. FIG. 7B depicts time-course analysis of the effect of HSA-28P on the rate of insulin secretion in INS-1E cells. The INS-1E cells were prepared for the experiment as described above with 1.34 μM of both HSA-28P or NRPNP, and 0.76 μg/ml of NP. […] INS-1E cells were treated as described in Panel D. Cells were detached by trypsin and counted as described in Methods and then were visualized with a Cells Sense Live Imaging microscope. […]\nBriefly, cells were incubated with MTT (2 mg/mL) in growth medium for 30 min at 37° C. […] Absorbance at 570 nm was measured in a SpectraMax M5 spectrophotometer (Sunnyvale, Calif., USA). The obtained results were normalized by total protein content in culture cells, which was measured using the Bradford reagent. […]"}, "INS-1E cells [2]": {"system": "INS-1E cells", "assay": "Insulin secretion of INS-1E cells after 5 h incubation with peptidomimetic agent", "description": "FIG. 22, comprising FIG. 22A through FIG. 22C, depicts experimental results of incubation of INS1E cells with peptidomimetic agent. A peptidomimetic agent was designed to mimic neuroligin's binding site for neurexin. Monomers and dimers had no effect on insulin secretion. Multiple dimers were conjugated to PEG-2000 to simulate clustering (reagent HSA-112). Dimers were also clustered on nanoparticles (HSA-637). FIG. 22A depicts INS-1E cells were incubated for 5 h with HSA-112 (blue columns) or HSA-637 (purple) at different concentrations or with vehicle alone (black), washed, and then tested for insulin secretion at 3 mM glucose (striped columns) or at 20 mM glucose (solid columns). […] FIG. 22B depicts a time course: insulin secretion was analyzed after the number of hours indicated following a 5 h incubation with 100 μM HSA-112 (blue), 500 nM HSA-637 (purple) or vehicle alone (black). Incubations were with 3 mM glucose (striped columns) or 20 mM glucose (solid columns). FIG. 22C depicts microscopy where INS-1E cells were incubated with HSA-637 conjugated to a fluorescent dye (Cy5, red) and then washed. Membranes were stained with Alexa Fluor 488 (green). For better visualization, microscopy was in hypotonic saline causing the INS-1E cells to swell and become more rounded."}, "INS-1E cells [3]": {"system": "INS-1E cells", "assay": "Cell counting (trypan blue) / proliferation and cluster formation", "details": "24 h", "description": "as §1, with “NP. After incubation for the time indicated in the graph, the cells were taken to a GSIS as described in Methods. FIG. 7C depicts the measurement of insulin content. The RIA-assay was performed for INS-1E lysates.” for “NP.”\nCells were detached by trypsin and colored by Trypan blue. Only uncolored cells were counted. […]"}, "INS-1E cells [4]": {"system": "INS-1E cells", "assay": "Insulin content (RIA) of INS-1E lysates", "details": "24 h", "description": "as §1, with “glucose.” for “glucose. FIG. 7B depicts time-course analysis of the effect of HSA-28P on the rate of insulin secretion in INS-1E cells. The INS-1E cells were prepared for the experiment as described above with 1.34 μM of both HSA-28P or NRPNP, and 0.76 μg/ml of NP.”\nThe lysis buffer contained 50 mmol/L Tris-HCl, pH 7.5, 1 mmol/L EDTA, 1 mmol/L EGTA, 1 mmol/L Na3VO4, 150 mmol/L NaCl, 50 mmol/L NaF, 10 mmol/L sodium-glycerophosphate, 5 mmol/L sodium pyrophosphate, and 1 mmol/L PMSF, supplemented with 0.1% (v/v) IGEPAL, 0.1% (v/v) 2-β-mercaptoethanol, and protease inhibitor cocktail (1:100 dilution). […] Protein content in the supernatant was determined by Bradford analysis, using a BSA standard dissolved in the same buffer. […]"}}, "note": "Ends that are not written are not given here."}
{"substance": "HSA-112: HSA-28 dimer formed by bridging two HSA-28 monomers via amide bond formation with active ester PEG2,000 (QQGEFLNYD-NH2; not fully specified (N-terminus); also: dimer of two HSA-28 monomers bridged via amide bonds with active ester PEG2000)", "values": [{"measurement": "cell protective effect compared with trolox", "setting": "INS-1E cells [1]; glucose oxidase-induced oxidative stress", "value": "almost identical to that of the well-known antioxidant (trolox)"}, {"measurement": "effect on cell viability under oxidative stress", "setting": "INS-1E cells [1]; glucose oxidase/glucose system, 24 h", "value": "cytoprotective effect"}, {"measurement": "concentration that significantly increased glucose-stimulated insulin secretion", "setting": "INS-1E cells [2]; 5 h incubation, 20 mM glucose, p<0.05", "value": "≥ 20", "unit": "µM"}, {"measurement": "effect on insulin secretion", "setting": "INS-1E cells [2]; INS-1 β cells", "value": "increased insulin secretion in a dose-dependent manner"}, {"measurement": "amount of cells / proliferation rate", "setting": "INS-1E cells [3]", "value": "higher than that in the control dishes"}, {"measurement": "effect on cellular / total insulin content", "setting": "INS-1E cells [4]", "value": "did not affect the cellular insulin content"}]}
